Bridge positions count the residues as written; N and C are the ends. Peptide text beside a SMILES is read from it.
Legend:
Type in all cases: in vivo
glucagon = assay: Arginine-stimulated glucagon secretion in Nembutal-anesthetized rats; conditions: for Glucagon: albino male rats, blood 15 min after dose (5 min after arginine), control 51 ± 4, * = p < 0.01
Experimental: (§1) Albino male rats were administered Nembutal intraperitoneally at a dose of 50 milligrams per kilogram. Fifteen minutes later a subcutaneous injection of the test compound or physiological saline was administered. Ten minutes later 0.5 milliliters of arginine (300 milligrams per milliliter, pH 7.2) is injected into the heart. Five minutes after receipt of the arginine the rats are decapitated and blood is collected into trasylol-EDTA. An appropriate aliquot was assayed for growth hormone, insulin and glucagon.

growth hormone = assay: Arginine-stimulated growth hormone secretion in Nembutal-anesthetized rats; conditions: for GH: albino male rats, blood 15 min after dose (5 min after arginine), control 288 ± 30, * = p < 0.01
Experimental: as §1

insulin = assay: Arginine-stimulated insulin secretion in Nembutal-anesthetized rats; conditions: for Insulin: albino male rats, blood 15 min after dose (5 min after arginine), control 372 ± 47
Experimental: as §1

Row | Structure (SMILES) | Glucagon (glucagon; 1300 ug/kg subcutaneous) | reducing secretion of glucagon (in words) (glucagon; summary of rat assay) | GH (growth hormone; 1300 ug/kg subcutaneous) | reducing secretion of growth hormone (in words) (growth hormone; summary of rat assay) | Insulin (insulin; 1300 ug/kg subcutaneous) | effect on insulin levels (in words) (insulin; summary of rat assay) | Glucagon (glucagon; 200 ug/kg subcutaneous) | GH (growth hormone; 200 ug/kg subcutaneous) | Insulin (insulin; 200 ug/kg subcutaneous, + = p < 0.05)
1 | C[C@H](N)C(=O)NCC(=O)N[C@H]1CSSC[C@@H](C(=O)O)NC(=O)[C@H](CO)NC(=O)[C@H]([C@@H](C)O)NC(=O)[C@H](Cc2ccccc2)NC(=O)[C@H]([C@@H](C)O)NC(=O)[C@H](CCCCN)NC(=O)[C@H](Cc2c[nH]c3ccccc23)NC(=O)[C@H](Cc2ccccc2)NC(=O)[C@H](Cc2ccccc2)NC(=O)[C@H](Cc2c[nH]cn2)NC(=O)[C@H](CCCCN)NC1=O [(His^5)SRIF, L-Alanyl-glycyl-L-cysteinyl-lysyl-L-histidyl-L-phenylalanyl-L-phenylalanyl-L-tryptophyl-L-lysyl-L-threonyl-L-phenylalanyl-L-threonyl-L-seryl-L-cysteine(3-14 cyclic)disulfide] (H-AGCKHFFWKTFTSC-OH; disulfide 3-14) | 31 ± 6 pg/mL | effective agent for reducing secretion of growth hormone and glucagon | 83 ± 15 ng/mL | effective agent for reducing secretion of growth hormone | 390 ± 94 μU/ml | without materially affecting insulin levels | – | – | –
2 | C[C@H](N)C(=O)NCC(=O)N[C@H]1CSSC[C@@H](C(=O)O)NC(=O)[C@H](CO)NC(=O)[C@H]([C@@H](C)O)NC(=O)[C@H](Cc2ccccc2)NC(=O)[C@H]([C@@H](C)O)NC(=O)[C@H](CCCCN)NC(=O)[C@H](Cc2c[nH]c3ccccc23)NC(=O)[C@H](Cc2ccccc2)NC(=O)[C@H](Cc2ccccc2)NC(=O)[C@H](CC(N)=O)NC(=O)[C@H](CCCCN)NC1=O [SRIF, reference compound] | – | – | – | – | – | – | 26 ± 6 pg/mL | 66 ± 11 ng/mL | 232 ± 23 μU/ml

— patent US4098782A, “(His^5)-somatostatin and analogues thereof” (American Home Products Corporation, priority 1977, dated 1978)
